The text below walks through data of patent publication US20100056441A1, “Method for Inhibiting Angiogenesis” (priority 2006, published 2010).

Non-standard residues stand in square brackets, D forms with d. Residues, ends and D or L forms follow the SMILES beside them.

One data set concerns mouse HCC cells. As to the kind of experiment: Apoptosis in mouse liver tumors (H&E, TUNEL, activated caspase 3). The format is in vivo. The note with it: treated tumor-bearing mice. The text has this:
Furthermore, these apoptotic tumor cells were not apparent in FoxM1 deficient livers in dsRNA (CKO) Mx-Cre Foxm1−/− mice (FIG. 3E-3G).
To measure apoptosis in mouse livers we used the Terminal Deoxynucleotidyl Transferase-mediated dUTP-biotin Nick End Labeling (TUNEL) assay on liver sections using the ApoTag Fluorescein in situ apoptosis detection kit from Intergen (Purchase, N.Y.) according to the manufacturer's recommendations. The mean number (±SD) of TUNEL- or DAPI-positive hepatocyte nuclei was calculated per 1000 cells or 200× field by counting the number of positive hepatocyte nuclei using five different 200× fields of liver tumor sections from male mice at the indicated times of DEN/PB exposure.

Data set [1] concerns HCC cells of ARF -/- Rosa 26 FoxM1b TG mice. As to the kind of experiment: Apoptosis of HCC in ARF -/- Rosa26 FoxM1b TG mice (H&E, TUNEL). The format is in vivo, mouse. As to the method:
In order to determine the effective concentration of dose of the ARF peptide for efficient liver delivery, mice were subjected to IP injection of either 0.1, 1, 5 or 10 mg/Kg body weight of TMR fluorescently tagged WT ARF 26-44 peptide, and were sacrificed 24 hours later, after which their livers were dissected, formalin fixed and paraffin embedded. Liver sections were treated with Xylene to remove paraffin wax and then examined by fluorescent microscopy for red peptide fluorescence. This dose response curve determined that IP injection of either equal or greater than 5 mg/Kg body weight of TMR-fluorescently labeled WT ARF 26-44 peptide was detectable in cytoplasm and nucleolus of hepatocytes and in hepatic mesenchymal cells at 24 hours after injection (FIG. 4G). […]
To measure apoptosis in mouse livers we used the Terminal Deoxynucleotidyl Transferase-mediated dUTP-biotin Nick End Labeling (TUNEL) assay on liver sections using the ApoTag Fluorescein in situ apoptosis detection kit from Intergen (Purchase, N.Y.) according to the manufacturer's recommendations. The mean number (±SD) of TUNEL- or DAPI-positive hepatocyte nuclei was calculated per 1000 cells or 200× field by counting the number of positive hepatocyte nuclei using five different 200× fields of liver tumor sections from male mice at the indicated times of DEN/PB exposure. […]

Another data set addresses T1, FoxM1b (Homo sapiens, UniProt Q08050).
T1 sequence (Q08050 1-748 isoform Q08050-2): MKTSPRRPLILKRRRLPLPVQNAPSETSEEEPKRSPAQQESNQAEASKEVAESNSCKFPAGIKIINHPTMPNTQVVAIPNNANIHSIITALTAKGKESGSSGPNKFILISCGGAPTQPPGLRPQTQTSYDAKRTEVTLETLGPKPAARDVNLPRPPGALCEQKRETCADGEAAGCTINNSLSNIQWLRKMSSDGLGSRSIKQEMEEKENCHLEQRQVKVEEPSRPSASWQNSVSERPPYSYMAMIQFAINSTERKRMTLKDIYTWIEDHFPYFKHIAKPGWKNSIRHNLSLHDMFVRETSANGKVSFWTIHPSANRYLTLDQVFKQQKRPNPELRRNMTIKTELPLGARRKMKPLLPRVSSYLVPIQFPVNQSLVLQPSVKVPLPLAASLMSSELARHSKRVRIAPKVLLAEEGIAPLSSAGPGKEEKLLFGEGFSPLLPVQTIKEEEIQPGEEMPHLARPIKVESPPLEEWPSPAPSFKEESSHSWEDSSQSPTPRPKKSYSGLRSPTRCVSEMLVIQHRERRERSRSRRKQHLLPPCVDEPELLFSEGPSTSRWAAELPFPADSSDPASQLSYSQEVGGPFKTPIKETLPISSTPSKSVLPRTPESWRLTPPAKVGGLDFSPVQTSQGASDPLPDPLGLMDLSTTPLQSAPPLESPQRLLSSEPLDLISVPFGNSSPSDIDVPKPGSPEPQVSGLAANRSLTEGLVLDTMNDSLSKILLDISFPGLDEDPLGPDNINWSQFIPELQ
The note with it: cited from earlier work.

Turning to `CC(C)C[C@H](NC(=O)[C@H](C)NC(=O)[C@H](CS)NC(=O)[C@H](CO)NC(=O)[C@H](C)NC(=O)[C@@H](NC(=O)[C@H](CCCNC(=N)N)NC(=O)[C@@H]1CCCN1C(=O)[C@H](CCCNC(=N)N)NC(=O)[C@H](CCCNC(=N)N)NC(=O)[C@H](CO)NC(=O)[C@H](CCCNC(=N)N)NC(=O)[C@@H](NC(=O)[C@H](Cc1ccccc1)NC(=O)[C@H](CCCCN)NC(=O)[C@@H](CCCNC(=N)N)NC(=O)[C@@H](CCCNC(=N)N)NC(=O)[C@@H](CCCNC(=N)N)NC(=O)[C@@H](CCCNC(=N)N)NC(=O)[C@@H](CCCNC(=N)N)NC(=O)[C@@H](CCCNC(=N)N)NC(=O)[C@@H](CCCNC(=N)N)NC(=O)[C@@H](CCCNC(=N)N)NC(=O)[C@H](N)CCCNC(=N)N)C(C)C)[C@@H](C)O)C(=O)N[C@@H](C)C(=O)N[C@@H](Cc1ccccc1)C(=O)N[C@H](C(=O)N[C@@H](CC(N)=O)C(=O)O)C(C)C` [WT ARF 26-44 peptide, rrrrrrrrrKFVRSRRPRTASCALAFVN] (H-[dR][dR][dR][dR][dR][dR][dR][dR][dR]KFVRSRRPRTASCALAFVN-OH; N-terminus and C-terminus assumed), in the data set with mouse HCC cells, the “activated caspase 3 staining in adjacent normal liver tissue” value is recorded as “no pro-apoptotic staining in the adjacent normal liver tissue” and the “red staining cells in surrounding normal liver tissue (H&E)” value is “neither in the surrounding normal liver tissue”. The “TUNEL-positive cells in adjacent normal liver tissue” value in data set [1] is listed as “not detected in adjacent normal liver tissue”.
For “KFVRSRRPRTASCALAFVN (listed as Homo sapiens) [p19ARF26-44 peptide, amino acids 26-44 of the p19ARF tumor suppressor protein]”, in the data set with FoxM1b, the “inhibition of FoxM1B activity” value was “sufficient in inhibiting FoxM1B activity”.
